# Reference: ChEMBL document CHEMBL4007399, “Discovery and Synthesis of a Phosphoramidate Prodrug of a Pyrrolo[2,1-f][triazin-4-amino] Adenine C-Nucleoside (GS-5734) for the Treatment of Ebola and Emerging Viruses” (J Med Chem, 2017)
# The source made the active and inactive calls. No cut-off for these calls is given here.
# Tests used:
# Hepatitis C virus = assay: Antiviral activity against Hepatitis C virus genotype 1b infected in human HuH7 cells preincubated with cells for 3 days followed by viral infection by luciferase assay; assay type: functional, cell-based, Hepacivirus hominis; conditions: Hepatitis C virus, genotype 1b, Huh-7
# [1] = Cytotoxicity against human MT4 cells assessed as reduction in cell viability after 4 to 5 days by Cell-Titer Glo assay; assay type: cell-based; conditions: MT4 cells
# Ebolavirus [2] = assay: Antiviral activity against Ebolavirus Kikwit infected in human HeLa cells assessed as reduction in viral glycoprotein levels preincubated with cells for 2 hrs followed by viral infection measured after 48 hrs by immunostaining based assay; assay type: functional, cell-based; conditions: Orthoebolavirus, Kikwit, HeLa
# [3] = Cytotoxicity against human Hep2 cells assessed as reduction in cell viability after 4 to 5 days by Cell-Titer Glo assay; assay type: cell-based, HEp-2; conditions: HEp-2 cells
# Ebolavirus [4] = assay: Antiviral activity against GFP-fused Ebolavirus infected in TERT-immortalized HMVEC assessed as reduction in viral replication preincubated with cells followed by viral infection measured after 3 to 4 days by fluorescence assay; assay type: functional; conditions: Orthoebolavirus, HMVEC
# [5] = Cytotoxicity against human HuH7 cells assessed as reduction in cell viability after 3 days by calcein-AM dye based fluorescence assay; design: species or system Huh-7; conditions: Huh-7 cells
# Human orthopneumovirus = assay: Antiviral activity against Respiratory syncytial virus A2 infected in human Hep2 cells assessed as reduction of virus-induced cytopathic effect after 4 days by Cell-Titer Glo assay; assay type: functional, cell-based; conditions: human respiratory syncytial virus, A2, HEp-2, 96 h
# [6] = Half life in human plasma at 2 uM by LC/MS/MS analysis; assay type: ADME, cell-free
# Ebolavirus [7] = assay: Antiviral activity against Ebolavirus Kikwit infected in human macrophages preincubated with cells for 2 hrs followed by viral infection measured after 48 hrs; assay type: functional; conditions: Orthoebolavirus, Kikwit
# [8] = Lipophilicity, log D of the compound after 30 mins by HPLC/UV method; assay type: physicochemical
# Ebolavirus [9] = assay: Antiviral activity against Ebolavirus infected in rhesus monkey assessed as increase in survival at 10 mg/kg, iv administered daily starting from day 3 post infection followed by 3 mg/kg for 11 days measured up to 28 days; assay type: functional, organism-based
# Ebolavirus [10] = assay: Antiviral activity against Ebolavirus in phase-1 acute meningoencephalytis patient assessed as viral clearance in CNS at 150 mg, iv qd administered daily for 2 days followed by 225 mg for 14 days; assay type: functional, organism-based
# Ebolavirus [11] = assay: Antiviral activity against Ebolavirus infected in rhesus monkey assessed as reduction in systemic viremia at 3 mg/kg, iv qd administered continuously starting from day 2 post infection for 12 days; assay type: functional, organism-based
# Ebolavirus [12] = assay: Antiviral activity against Ebolavirus in phase-1 acute meningoencephalytis patient assessed as viral clearance in plasma at 150 mg, iv qd administered daily for 2 days followed by 225 mg for 14 days; assay type: functional, organism-based
# Ebolavirus [13] = assay: Antiviral activity against Ebolavirus infected in newborn infant assessed as viral clearance; assay type: functional
Structure (SMILES),EC50 (Hepatitis C virus) [µM],CC50 [1] [µM],EC50 (Ebolavirus [2]) [µM],CC50 [3] [µM],EC50 (Ebolavirus [4]) [µM],CC50 at 72 h [5] [µM],EC50 (Human orthopneumovirus) [µM],half-life at 2 µM [6] [h],EC50 (Ebolavirus [7]) [µM],logD at 0.5 h [8],Activity (Ebolavirus [9]),Activity (Ebolavirus [10]),Activity (Ebolavirus [11]),Activity (Ebolavirus [12]),Activity (Ebolavirus [13])
CCC(CC)COC(=O)[C@H](C)NP(=O)(OC[C@H]1O[C@@](C#N)(c2ccc3c(N)ncnn23)[C@](C)(O)[C@@H]1O)Oc1ccccc1 (stereo not given in full),0.37,1.4,27,> 50,13,> 44,> 50,,,,,,,,
CCOC(=O)[C@H](Cc1ccccc1)NP(=O)(OC[C@H]1O[C@@](C#N)(c2ccc3c(N)ncnn23)[C@H](O)[C@@H]1O)Oc1ccccc1 (stereo not given in full),,15,4.38,,0.587,,,26.4,0.27,1.6,,,,,
C#C[C@@]1(c2ccc3c(N)ncnn23)O[C@H](CO)[C@@H](O)[C@H]1O,> 88,120,,> 200,,> 88,> 200,,,,,,,,
CCC(CC)COC(=O)[C@@H](C)NP(=O)(OC[C@H]1O[C@@](C#N)(c2ccc3c(N)ncnn23)[C@H](O)[C@@H]1O)Oc1ccccc1 (stereo not given in full),,42,0.55,,0.518,,,26.4,0.729,2.1,,,,,
C#C[C@@]1(c2ccc3c(N)ncnn23)O[C@H](COP(=O)(N[C@@H](C)C(=O)OCC(CC)CC)Oc2ccccc2)[C@@H](O)[C@H]1O (stereo not given in full),6.9,> 32,,> 100,3.9,> 44,1.1,,,,,,,,
C[C@H](N[P@](=O)(OC[C@H]1O[C@@](C#N)(c2ccc3c(N)ncnn23)[C@H](O)[C@@H]1O)Oc1ccccc1)C(=O)OCC(C)(C)C,,3,0.168,,0.092,,,11.7,,1.7,,,,,
Nc1ncnn2c([C@@H]3O[C@H](CO)[C@@H](O)[C@H]3O)ccc12,0.0035,< 0.01,,0.038,,0.15,,,,,,,,,
N#C[C@@]1(c2ccc3c(N)ncnn23)O[C@H](CO)[C@@H](O)[C@H]1O [GS-441524],,> 57,> 20,> 100,0.78,> 88,0.53,,> 20,0.3,,,,,
N#C[C@@]1(n2ccc(N)nc2=O)O[C@H](CO)[C@@H](O)[C@H]1O,12,> 57,> 50,> 100,> 10,> 44,7.3,,,,,,,,
C[C@H](NP(=O)(OC[C@H]1O[C@@](C#N)(c2ccc3c(N)ncnn23)[C@H](O)[C@@H]1O)Oc1ccccc1)C(=O)OC1CCC1 (stereo not given in full),,6,0.42,,0.088,,,13.6,,1.1,,,,,
CCOC(=O)[C@H](C)NP(=O)(OC[C@H]1O[C@@](C#N)(c2ccc3c(N)ncnn23)[C@H](O)[C@@H]1O)Oc1ccccc1 (stereo not given in full),,13,2.43,,0.636,,,26.4,,0.6,,,,,
CCOC(=O)[C@H](C)NP(=O)(N[C@@H](C)C(=O)OCC)OC[C@H]1O[C@@](C#N)(c2ccc3c(N)ncnn23)[C@H](O)[C@@H]1O,,> 53,20.4,,9.1,,,,,< 0.3,,,,,
CC(C)OC(=O)[C@H](C)N[P@@](=O)(OC[C@H]1O[C@@](C#N)(c2ccc3c(N)ncnn23)[C@H](O)[C@@H]1O)Oc1ccccc1,,21,1.84,,0.367,,,26,0.297,1.1,,,,,
CCOC(=O)[C@@H](NP(=O)(OC[C@H]1O[C@@](C#N)(c2ccc3c(N)ncnn23)[C@H](O)[C@@H]1O)Oc1ccccc1)C(C)C (stereo not given in full),,> 100,7.04,,3.15,,,26.4,,1.2,,,,,
CC(C)OC(=O)[C@H](C)NP(=O)(OC[C@H]1O[C@@](C#N)(n2ccc(N)nc2=O)[C@H](O)[C@@H]1O)Oc1ccccc1 (stereo not given in full),2.5,53,> 20,> 100,,> 44,63,,,,,,,,
CCC(CC)OC(=O)[C@H](C)NP(=O)(OC[C@H]1O[C@@](C#N)(c2ccc3c(N)ncnn23)[C@H](O)[C@@H]1O)Oc1ccccc1 (stereo not given in full),,> 100,1.81,,0.845,,,14.3,,1.6,,,,,
N#C[C@@]1(c2ccc3c(N)ncnn23)O[C@H](CO)[C@@H](O)[C@H]1F,> 44,32,,,,> 44,> 100,,,,,,,,
CC(C)OC(=O)[C@H](C)N[P@](=O)(OC[C@H]1O[C@@](C#N)(c2ccc3c(N)ncnn23)[C@](C)(O)[C@@H]1OC(=O)C(C)C)Oc1ccccc1 [GS-6620],0.31,7.8,> 20,95,40,51,> 20,,,,,,,,
C[C@@]1(c2ccc3c(N)ncnn23)O[C@H](CO)[C@@H](O)[C@H]1O,38,4.5,,93,> 10,62,5.5,,,,,,,,
C[C@H](NP(=O)(OC[C@H]1O[C@@](C#N)(c2ccc3c(N)ncnn23)[C@H](O)[C@@H]1O)Oc1ccccc1)C(=O)OC(C)(C)C (stereo not given in full),,> 100,30.4,,3.79,,,26.4,,1.3,,,,,
CCC(CC)COC(=O)[C@H](C)N[P@](=O)(OC[C@H]1O[C@@](C#N)(c2ccc3c(N)ncnn23)[C@H](O)[C@@H]1O)Oc1ccccc1,,,,,,,,,,,Active,Active,Active,Active,Active
C[C@H](NP(=O)(OC[C@H]1O[C@@](C#N)(c2ccc3c(N)ncnn23)[C@H](O)[C@@H]1O)Oc1ccccc1)C(=O)OC1CCCC1 (stereo not given in full),,8.8,0.633,,0.16,,,26.3,0.12,1.3,,,,,
N#C[C@@]1(n2cnc3c(N)ncnc32)O[C@H](CO)[C@@H](O)[C@H]1O,> 44,> 53,,> 100,56,> 88,> 100,,,,,,,,
C[C@@]1(O)[C@H](O)[C@@H](CO)O[C@@]1(C#N)c1ccc2c(N)ncnn12,> 44,> 57,50,> 100,> 10,> 44,> 100,,,,,,,,
CCC(CC)COC(=O)[C@H](C)N[P@@](=O)(OC[C@H]1O[C@@](C#N)(c2ccc3c(N)ncnn23)[C@H](O)[C@@H]1O)Oc1ccccc1,,,0.08,,0.053,,,,0.111,2,,,,,
